Values joined by “and” are separate entries in the source; they are usually repeats but may differ in a detail not shown here. Equal entries are not always repeated. Where two headings read alike, the source gives them in different places.
How the values were obtained:
[1] = Competition assay: N1–E4 dimerization in the presence of competitors C1–6 (HPLC); assay type: physicochemical; conditions: equimolar E4, competitor and N1, 50 μM each
[2] = Colorimetric alkylation rate constant assay with thiol N1; assay type: physicochemical
[3] = Colorimetric alkylation rate constant assay with TNB^2− as non-specific thiol; assay type: physicochemical; parameters: second-order: unit not given here; conditions: [B]0 = 250, Replicates 1-3
[4] = system: THP-1 Lucia ISG cells; assay: β-Glucuronidase-specific STING activation, cytokine secretion assays; assay type: cell-based, human; conditions: 25 μM each, with β-glucuronidase 250 units ml^−1, 24 h
Experimental: THP-1 Lucia ISG cells were maintained as described above. On the day of the experiment, cells were pelleted (150g, 10 min) and resuspended in the growth medium (40% conditioned) at a density of 1 × 10^6 cells ml^−1. […] The supernatants were collected, aliquoted and frozen at −20 °C for future analysis. […] Data were analysed by two-tailed Welch’s t-test (GraphPad Prism).

[5] = LC-MS analysis of the N1–E4 reaction in the presence of glutathione; assay type: physicochemical; conditions: 50 μM N1 + 50 μM E4, 1 mM glutathione, pH 7.0, 37 °C, 2 h
Experimental: Extended Data Fig. 5 LC-MS analysis of the reaction between N1 and E4 in the presence of glutathione (1 mM). N1 (50 μM) and E4 (50 μM) were reacted at neutral pH (25 mM HEPES pH 7.0, 150 mM NaCl) and in the presence of reduced glutathione (1 mM). The reaction mixture was incubated at 37 °C for 2 h. No glutathione-adduct of E4 was identified. TEXT PRINTED IN THE PICTURE: no label printed: exact mass: 340.04 | no label printed: exact mass: 618.05

[6] = system: CT26mβGUS tumours; conditions: mouse, in vivo
[7] = system: THP-1 cells; assay: Dilution limits of N1/E4 combination to activate THP-1 cells (IFN-β ELISA); conditions: IFN-β secretion, 6 h, single component
[8] = target: E. coli β-glucuronidase (Escherichia coli, UniProt P05804); conditions: pH 6.8
[9] = Stability test in human plasma; assay type: in vitro ADME; conditions: 48 h, 37 °C
Experimental: Extended Data Fig. 6 Stability test of β-GlcA-N1 (1 mM) in human plasma. At the indicated time point, an 80 µL aliquot was loaded onto an Agilent Bond Elut solid phase extraction column (C18, 3 mL bed volume). The collected eluent was lyophilized, redissolved in a 50% (v/v) acetonitrile in water (0.1% v/v formic acid), and analyzed by LC-MS. TEXT PRINTED IN THE PICTURE: β-GlcA-N1: integration value: 91206 (t = 0 hr, human plasma); integration value: 84431 (t = 48 hr, 37 °C, human plasma) | no label printed: exact mass: 502.06 | no label printed: exact mass: 309.02 DOUBTS OF THE COPYIST ABOUT THIS PICTURE: The name β-GlcA-N1 is printed only at the peak in the upper chromatogram. The lower chromatogram's integration value (84431) is assigned to it as the same peak. / The two drawn structures have no printed label. Their exact masses are given with an empty substance label.

[10] = system: CT26mβGUS tumours; assay: CT26mβGUS syngeneic mouse tumour model; conditions: single component alone
[11] = system: MC38 tumours; conditions: for Tumor Size: individual mice, * = excluded once a death was recorded in the group
[12] = target: T1, human β-glucuronidase (Homo sapiens, UniProt P08236); assay: Michaelis–Menten kinetics of β-GlcA-N1 cleavage; assay type: biochemical; conditions: for dilution-corrected deltaN1: replicates 1 and 2
T1 construct: purchased AcroBiosystems BEB-H52H3
T1 sequence (P08236 23-651): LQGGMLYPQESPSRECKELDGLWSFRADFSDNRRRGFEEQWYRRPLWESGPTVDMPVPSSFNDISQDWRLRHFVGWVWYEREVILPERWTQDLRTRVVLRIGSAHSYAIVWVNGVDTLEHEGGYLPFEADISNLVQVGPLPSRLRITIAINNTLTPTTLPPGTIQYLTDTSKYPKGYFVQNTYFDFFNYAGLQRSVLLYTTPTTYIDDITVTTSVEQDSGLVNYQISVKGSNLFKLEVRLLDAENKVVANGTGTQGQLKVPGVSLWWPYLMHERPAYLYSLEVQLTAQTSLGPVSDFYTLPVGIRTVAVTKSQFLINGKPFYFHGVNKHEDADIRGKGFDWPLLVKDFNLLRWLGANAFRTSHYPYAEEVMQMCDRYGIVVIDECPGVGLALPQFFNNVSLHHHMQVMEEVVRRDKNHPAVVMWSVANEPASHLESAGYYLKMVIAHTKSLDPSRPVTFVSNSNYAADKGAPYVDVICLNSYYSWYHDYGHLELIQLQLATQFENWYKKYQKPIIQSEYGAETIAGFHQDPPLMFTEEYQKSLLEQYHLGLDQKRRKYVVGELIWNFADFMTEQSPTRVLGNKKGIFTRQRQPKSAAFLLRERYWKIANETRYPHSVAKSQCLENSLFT
Experimental: Human β-glucuronidase (AcroBiosystems BEB-H52H3) was reconstituted in deionized water to a concentration of 1 mg ml^−1. The enzyme stock solution was further diluted in assay buffer (0.2 M acetate pH 4.5) to 10 μg ml^−1 (134 nM). β-GlcA-N1 (50 mM DMSO stock) was twofold serially diluted in assay buffer from 5 to 0.078 mM. The enzyme solution and diluted β-GlcA-N1 were incubated in a transparent 96-well plate and incubated at 37 °C until thermo equilibrium was reached. Then, 100 µl of β-GlcA-N1 at various concentrations was mixed with 100 µl of β-glucuronidase using a multichannel pipette, resulting in the following initial condition: [β-GlcA-N1] = 2.5, 1.25, 0.62, 0.31, 0.16, 0.08 and 0.04 mM; [β-glucuronidase] = 67 nM; 5% DMSO (v/v). The reactions were incubated at 37 °C. At 30-min and 60-min timepoints, a 50-µl portion was withdrawn from each reaction mixture and mixed with 50 µl of quenching buffer (1 M sodium carbonate, 1 mM TCEP). The concentration of liberated N1 was determined by comparing the absorbance of each quenched reaction at 410 nm to a calibration curve of purified N1. Reaction velocities were calculated from the slopes of [N1] versus time plots. The velocity versus [β-GlcA-N1] plot was then fitted with the standard Michaelis–Menten kinetic model (GraphPad Prism).

Sequence of E. coli β-glucuronidase (P05804 whole entry): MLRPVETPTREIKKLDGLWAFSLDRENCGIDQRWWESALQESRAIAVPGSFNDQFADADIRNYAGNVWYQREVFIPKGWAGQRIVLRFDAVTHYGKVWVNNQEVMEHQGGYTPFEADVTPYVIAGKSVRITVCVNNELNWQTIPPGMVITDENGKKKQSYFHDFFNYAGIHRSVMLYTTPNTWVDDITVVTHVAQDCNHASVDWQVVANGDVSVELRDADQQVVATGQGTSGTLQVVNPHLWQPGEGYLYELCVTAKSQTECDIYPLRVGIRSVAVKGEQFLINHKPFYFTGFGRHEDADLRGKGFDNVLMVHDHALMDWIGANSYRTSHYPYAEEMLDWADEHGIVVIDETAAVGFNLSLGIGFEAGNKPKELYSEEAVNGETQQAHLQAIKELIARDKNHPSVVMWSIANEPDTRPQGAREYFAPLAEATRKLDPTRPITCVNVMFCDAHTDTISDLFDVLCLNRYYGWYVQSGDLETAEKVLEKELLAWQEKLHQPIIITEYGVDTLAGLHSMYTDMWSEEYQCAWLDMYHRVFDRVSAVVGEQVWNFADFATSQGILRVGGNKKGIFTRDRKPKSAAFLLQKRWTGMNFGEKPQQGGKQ

O=C(CCl)Nc1cc(C(F)(F)F)cc(C(F)(F)F)c1 [Compound C1]
reduction of the amount of N1–E4 dimer by the competitor [1]: 35%
second-order ([2]; Replicate 1, time 576 sec, second-order plot value): 0.007537
second-order ([2]; Replicate 1, time 606 sec, second-order plot value): 0.007697
second-order ([2]; Replicate 2, time 576 sec, second-order plot value): 0.007533
second-order ([2]; Replicate 2, time 606 sec, second-order plot value): 0.00792
second-order ([2]; Replicate 3, time 576 sec, second-order plot value): 0.007357
second-order ([2]; Replicate 3, time 606 sec, second-order plot value): 0.007639
second-order ([2]; time 0 sec, replicates 1-3): 0.001153 and 0.001059 and 0.00116
second-order ([2]; time 30 sec, replicates 1-3): 0.001608 and 0.001493 and 0.001543
second-order ([2]; time 60 sec, replicates 1-3): 0.001966 and 0.001867 and 0.001909
second-order ([2]; time 91 sec, replicates 1-3): 0.002342 and 0.002215 and 0.002258
second-order ([2]; time 121 sec, replicates 1-3): 0.002679 and 0.002554 and 0.002612
second-order ([2]; time 151 sec, replicates 1-3): 0.002904 and 0.002968
second-order ([2]; time 212 sec, replicates 1-3): 0.003712 and 0.003583 and 0.003667
second-order ([2]; time 242 sec, replicates 1-3): 0.004057 and 0.003913 and 0.004
second-order ([2]; time 273 sec, replicates 1-3): 0.00439 and 0.004239 and 0.004347
second-order ([2]; time 303 sec, replicates 1-3): 0.004715 and 0.004571 and 0.004691
second-order ([2]; time 333 sec, replicates 1-3): 0.005043 and 0.004886 and 0.00503
second-order ([2]; time 364 sec, replicates 1-3): 0.005369 and 0.005207 and 0.005358
second-order ([2]; time 394 sec, replicates 1-3): 0.005645 and 0.005521 and 0.005712
second-order ([2]; time 424 sec, replicates 1-3): 0.005918 and 0.005838 and 0.006051
second-order ([2]; time 454 sec, replicates 1-3): 0.006191 and 0.006157 and 0.006365
second-order ([2]; time 485 sec, replicates 1-3): 0.006532 and 0.006449 and 0.006705
second-order ([2]; time 515 sec, replicates 1-3): 0.006798 and 0.006747 and 0.007019
second-order ([2]; time 545 sec, replicates 1-3): 0.007139 and 0.00704 and 0.007306
second-order ([3]; Time 2891 sec): 0.0005428 and 0.0004879 and 0.0005765
second-order ([3]; Time 3071 sec): 0.0005659 and 0.0004944 and 0.0005968
second-order ([3]; Time 3252 sec): 0.0005928 and 0.000525 and 0.0006178
second-order ([3]; Time 3433 sec): 0.0006132 and 0.0005166 and 0.0006465
second-order ([3]; Time 3613 sec): 0.0006269 and 0.0005419 and 0.0006634
second-order ([3]; Time 3794 sec): 0.0006518 and 0.0005802 and 0.0006849
second-order ([3]; Time 3974 sec): 0.0006575 and 0.0005747 and 0.00069
second-order ([3]; Time 4155 sec): 0.0006878 and 0.0006116 and 0.0007283
second-order ([3]; Time 4336 sec): 0.0007043 and 0.0006446 and 0.000736
second-order ([3]; Time 4516 sec): 0.0007158 and 0.0006546 and 0.0007684
second-order ([3]; Time 4697 sec): 0.0007519 and 0.0006931 and 0.0007736
second-order ([3]; Time 4878 sec): 0.0007648 and 0.000697 and 0.0008077
second-order ([3]; Time 5058 sec): 0.000772 and 0.0007238 and 0.0008222
second-order ([3]; Time 5239 sec): 0.0008041 and 0.000747 and 0.0008434
second-order ([3]; Time 5419 sec): 0.0008239 and 0.0007489 and 0.0008675
second-order ([3]; Time 5600 sec): 0.0008471 and 0.0007554 and 0.0008837
second-order ([3]; Time 5781 sec): 0.0008692 and 0.0007775 and 0.0009026
second-order ([3]; Time 5961 sec): 0.0008692 and 0.000805 and 0.0009333

CCSc1cc2cc(C(=O)CCC(=O)O)sc2cc1OC [Compound E4-ctrl]
secretion of cytokines downstream of STING (interferon-β, CXCL-10, IL-6) [4]: diminished the cytokine inductions

COc1cc2sc(C(=O)CCC(=O)O)cc2cc1SCCCl [Compound E4]
glutathione adduct formation [5]: No glutathione–E4 adduct was detected
body weight [6]: no significant losses were observed
concentration up to which no STING activation was shown (alone) [7]: > 64 µM
stability in phosphate buffer without added enzyme [8]: most E4 underwent hydrolysis

COc1cc2sc(C(=O)CCC(=O)O)cc2cc1SCO[C@@H]1O[C@H](C(=O)O)[C@@H](O)[C@H](O)[C@H]1O [β-GlcA-N1]
fraction remaining intact in human plasma [9]: more than 90%
body weight [10]: no significant losses were observed
Tumor Size ([11]; day 23): 113* mm^3 and 189.9* mm^3
Tumor Size ([11]; day 25): 125.8124* mm^3 and 301.5* mm^3
Tumor Size ([11]; day 30): 445.0408* mm^3 and 632.5* mm^3
Tumor Size ([11]; day 33): 1167* mm^3 and 1562* mm^3
Survival: Days ([11]; mouse, in vivo): 17 days and 33 days and 21 days
Survival: death event (1 denotes a death event) ([11]; mouse, in vivo): 1
kcat ([12]; Vmax / enzyme (6.71141e-8 M)): 0.4762
dilution-corrected deltaN1 ([12]; substrate conc. 0.0390625 mM): 4.272e-06 mM/s and 3.586e-06 mM/s
dilution-corrected deltaN1 ([12]; substrate conc. 0.078125 mM): 6.962e-06 mM/s and 7.225e-06 mM/s
dilution-corrected deltaN1 ([12]; substrate conc. 0.15625 mM): 1.1761e-05 mM/s and 1.16e-05 mM/s
dilution-corrected deltaN1 ([12]; substrate conc. 0.3125 mM): 1.598e-05 mM/s and 1.529e-05 mM/s
dilution-corrected deltaN1 ([12]; substrate conc. 0.625 mM): 2.231e-05 mM/s and 1.587e-05 mM/s
dilution-corrected deltaN1 ([12]; substrate conc. 1.25 mM): 2.547e-05 mM/s and 2.51e-05 mM/s
dilution-corrected deltaN1 ([12]; substrate conc. 2.5 mM): 3.022e-05 mM/s and 2.88e-05 mM/s
stability in phosphate buffer without added enzyme [8]: remained stable
